Assay results as given in US7750114B2, “Peptides having a high cysteine content” (priority 2002, dated 2010).
Bridge positions count the residues as written; N and C are the ends. Ends that are not written are not given here.

Columns and labels:
[1] = tested on: murine peritoneal macrophages; assay: Effect on murine peritoneal macrophages (NO, TNF-α, IL-10, survival); assay type: cell-based, CD1 mice; details: 24 hours; for IL-10 / TNF-α: control 0; for NO: control 1.1; for Survival rate: control 100
Method: Murine peritoneal macrophages extracted from CD1 mice were used. A peritoneal flushing was carried out using 5 ml of PBS. After three washing processes with RPMI 1640 the cells were put into a 96-well culturing plate with a concentration of 1×10^6 cells/ml (200 μl/well) in 10% FCS-RPMI 1640 medium and kept for 24 hours. After the incubation the cells were washed three times with RPMI 1640 and resuspended in 10% FCS-RPMI 1640 medium (100 μl/well) in the absence (non stimulated) or in the presence (stimulated) of different stimulants. After 24 hours of incubation NO, IL-10 and TNF-α were measured in the culture supernatant.

[2] = tested on: lung carcinoma cell line: A549; assay: Living A549 cells by AlamarBlue test; assay type: cell-based, homo sapiens; details: 100 μg/ml, after 72 h, FIG. 4
Method: Cell line: lung carcinoma cell line: A549 (ATCC No. CCL-185™), organism: homo sapiens, literature: Giard D J, et al. J. Natl. Cancer Inst. 51: 1417-1423, 1973.
After adherence of the cells (incubation 24 h, cell amount 5×10^3 cells per batch), the cells were treated for 72 h with MCS and/or peptides (CZT, DZT) and afterwards the percentage of living cells was measured by AlamarBlue test.
AlamarBlue™ cell growth test was carried out according to the specifications of the manufacturer (Serotec, Oxford, England, www.serotc.com).

[3] = tested on: Colon cancer cell line: Colo 205; assay: Living Colo 205 cells by MTT test; assay type: cell-based, homo sapiens; details: 24 h
Method: After adherence of the cells (incubation 24 h, cell amount 1×10^4 cells per batch), the cells were treated for 24 h with MCS and/or peptides (Hellethionin C (CZT), Hellethionin D (DZT)) and afterwards the percentage of living cells was measured by MTT test.
The MTT cell growth test was carried out according to Alley et. al. (M. C. Alley et al., Proc. Am. Assoc. Cancer Res., 27:389, 1986; M. C. Alley et al., Cancer Res. 48:589-601, 1988). The finale concentration of 3-(4,5-dimethylthiazol-2-yl)-2,5-diphenyltetrazoliumbromide was 0.4 mg/ml.

[4] = tested on: primary human immune cells; assay: Effect on the cytokine production of primary human immune cells (Quantikine ELISA in lymphocyte cultures); assay type: cell-based; details: for TGF-β2 concentration: control 9; for IL-4 concentration: control 34; for IL-3 concentration: control 41; for IL-2R concentration: control 44; for IL-10 concentration: control 69; for IL-6R concentration: control 171
Method: The effect of the peptide HT-A on the cytokine production of primary human immune cells was determined through the measurement of the concentration of cytokines in lymphocyte cultures obtained from human blood. Dosages of 4-200 μg/ml of the hellethionins were used, which were obtained by adding the calculated amounts in the form of a stock solution. The concentration of individual cytokines in the treated and control samples is determined by means of the commercially available “Quantikine” ELISA plates from R&D Biosystems, Minneapolis, USA. The results were compared with control samples, i.e. with the lymphocyte culture without addition of the peptide.
In the case of the lymphocyte cultures (4 million cells per ml) treated with 4 μg and 200 μg of the peptide HT-A, respectively, the following cytokine (and cytokine receptor) concentrations [pg/ml] were obtained in comparison with the control sample (without peptide): […]

[5] = tested on: human lymphocytes; details: Büssing A. et al. 1999; cited from earlier work
[6] = mammals; cited from earlier work

Substance “KSCCRNTLARNCYNACRFTGGSQPTCGILCDCIHVTTTTCPSSHPS (disulfide 3-40, 4-32, 12-30, 16-26) [HT-D, hellethionin-D]” has an IL-10 ([1]; 5 μg/ml) of 0 pg/mL, a TNF-α ([1]; 5 μg/ml) of 18 pg/mL and an NO ([1]; 5 μg/ml) of 0.8 µM. It also gave a Survival rate ([1]; 5 μg/ml) of 87.6%, an IL-10 ([1]; 100 μg/ml) of 0 pg/mL and a TNF-α ([1]; 100 μg/ml) of 0 pg/mL. For the same substance, the NO ([1]; 100 μg/ml) was 1.3 µM, the Survival rate ([1]; 100 μg/ml) was 42.8% and the “living cells (A549)” value [2] was “about 50%”. For the same substance, the “Living Colo 205 cells” value ([3]; 50 μg/ml) was 92.15%, the “Living Colo 205 cells” value ([3]; 100 μg/ml, listed as DZT) was “about 50%” and the “Living Colo 205 cells” value ([3]; 100 μg/ml, listed as DZT peptide) was 58.66%.
Work on “KSCCRNTLGRNCYNACRLTGTSQATCATLCDCIHVTATTCRPPYPS (disulfide 3-40, 4-32, 12-30, 16-26) [HT-C, hellethionin-C]” yielded a Survival rate ([1]; 5 μg/ml) of 80.3% and a Survival rate ([1]; 100 μg/ml) of 10.7%.
hellethionin-A [HT-A] gave a TGF-β2 concentration ([4]; 4 μg/ml peptide) of 105 pg/mL, an IL-4 concentration ([4]; 4 μg/ml peptide) of 19 pg/mL and an IL-3 concentration ([4]; 4 μg/ml peptide) of 26 pg/mL. The IL-2R concentration ([4]; 4 μg/ml peptide) was 30 pg/mL, the IL-10 concentration ([4]; 4 μg/ml peptide) was 288 pg/mL and the IL-6R concentration ([4]; 4 μg/ml peptide) was 100 pg/mL. It also gave a TGF-β2 concentration ([4]; 200 μg/ml peptide) of 45 pg/mL, an IL-4 concentration ([4]; 200 μg/ml peptide) of 12 pg/mL and an IL-3 concentration ([4]; 200 μg/ml peptide) of 8 pg/mL. For the same substance, the IL-2R concentration ([4]; 200 μg/ml peptide) was 67 pg/mL, the IL-10 concentration ([4]; 200 μg/ml peptide) was 12 pg/mL and the IL-6R concentration ([4]; 200 μg/ml peptide) was 65 pg/mL. For the same substance, the “expression of pro-inflammatory cytokines IL-2, IL-3, IL-4 and γ-IFN” value ([4]; 4 and 200 μg/ml) was “inhibiting the expression”, the “influence on production of IL-6 or TNF-α and expression of the IL-1 receptor” value ([4]; 4 and 200 μg/ml) was “no significant influence” and the “effect on cytokines acting suppressively, IL-10 and TGF-β2” value ([4]; more intense at 4 μg/ml than at 200 μg/ml) was “shows a stimulation”.
For purothionins, the “toxic effect on human lymphocytes” value [5] is given as “do not exert a toxic effect”.
In the case of viscotoxins, the “toxic effect on human lymphocytes” value [5] is given as “toxic” and the LD50 [6] is given as 0.1 to 1 mg/kg.
